According to patent publication US20200354348A1, “SEMISYNTHETIC AURONES AND METHODS OF USE THEREOF” (University of Kentucky Research Foundation, priority 2018, published 2020):

| SMILES | melting point |
| --- | --- |
| Cn1cc(/C=C2\Oc3cc(OCc4ccccc4F)ccc3C2=O)c2ccccc21 [Aurone 4d, (2Z)-6-[(2-Fluorobenzyl)oxy]-2-[(1-methyl-1H-indol-3-yl)methylene]-1-benzofuran-3(2H)-one] | 241 to 243 °C |
| Cn1cc(/C=C2\Oc3cc(OCc4ccccc4Cl)ccc3C2=O)c2ccccc21 [Aurone 4e, (2Z)-6-[(2-Chlorobenzyl)oxy]-2-[(1-methyl-1H-indol-3-yl)methylene]-1-benzofuran-3(2H)-one] | 206 to 208 °C |
| Cn1cc(/C=C2\Oc3cc(OCc4c(F)cccc4F)ccc3C2=O)c2ccccc21 [Aurone 4f, (2Z)-6-[(2,6-Difluorobenzyl)oxy]-2-[(1-methyl-1H-indol-3-yl)methylene]-1-benzofuran-3(2H)-one] | > 220 °C |
| Cn1cc(/C=C2\Oc3cc(OCc4c(Cl)cccc4Cl)ccc3C2=O)c2ccccc21 [Aurone 4g, (2Z)-6-[(2,6-Dichlorobenzyl)oxy]-2-[(1-methyl-1H-indol-3-yl)methylene]-1-benzofuran-3(2H)-one] | 247 to 249 °C |
| Cn1cc(/C=C2\Oc3cc(OCc4c(F)cccc4Cl)ccc3C2=O)c2ccccc21 [Aurone 4h, (2Z)-6-[(2-Chloro-6-fluorobenzyl)oxy]-2-[(1-methyl-1H-indol-3-yl)methylene]-1-benzofuran-3(2H)-one] | 225 to 227 °C |
| Cc1c(OCc2c(Cl)cccc2Cl)ccc2c1O/C(=C\c1cn(C)c3ccccc13)C2=O [Aurone 4i, (2Z)-6-[(2,6-Dichlorobenzyl)oxy]-7-methyl-2-[(1-methyl-1H-indol-3-yl)methylene]-1-benzofuran-3(2H)-one] | 232 to 234 °C |
| COc1ccc2c(c1)c(/C=C1\Oc3cc(OCc4ccc(F)cc4Cl)ccc3C1=O)cn2C [Aurone 4j, (2Z)-6-[(2-Chloro-4-fluorobenzyl)oxy]-2-[(5-methoxy-1-methyl-1H-indol-3-yl)methylene]-1-benzofuran-3(2H)-one] | 184 to 186 °C |
| COc1ccc2c(c1)c(/C=C1\Oc3cc(OCc4c(F)cccc4Cl)ccc3C1=O)cn2C [Aurone 4k, (2Z)-6-[(2-Chloro-6-fluorobenzyl)oxy]-2-[(5-methoxy-1-methyl-1H-indol-3-yl)methylene]-1-benzofuran-3(2H)-one] | 200 to 202 °C |
| COc1ccc2c(c1)c(/C=C1\Oc3cc(OCc4c(Cl)cccc4Cl)ccc3C1=O)cn2C [Aurone 4l, (2Z)-6-[(2,6-Dichlorobenzyl)oxy]-2-[(5-methoxy-1-methyl-1H-indol-3-yl)methylene]-1-benzofuran-3(2H)-one] | 233 to 235 °C |
| COc1ccc2c(c1)c(/C=C1\Oc3c(ccc(OCc4c(Cl)cccc4Cl)c3C)C1=O)cn2C [Aurone 4m, (2Z)-6-[(2,6-Dichlorobenzyl)oxy]-2-[(5-methoxy-1-methyl-1H-indol-3-yl)methylene]-7-methyl-1-benzofuran-3(2H)-one] | 241 to 243 °C |
| CCn1cc(/C=C2\Oc3cc(OCc4c(Cl)cccc4Cl)ccc3C2=O)c2cc(OC)ccc21 [Aurone 4o, (2Z)-6-[(2,6-Dichlorobenzyl)oxy]-2-[(1-ethyl-5-methoxy-1H-indol-3-yl)methylene]-1-benzofuran-3(2H)-one] | 211 to 213 °C |
| CCn1cc(/C=C2\Oc3cc(OCc4c(F)cccc4Cl)ccc3C2=O)c2ccccc21 [Aurone 4p, (2Z)-6-[(2-Chloro-6-fluorobenzyl)oxy]-2-[(1-ethyl-1H-indol-3-yl)methylene]-1-benzofuran-3(2H)-one] | 198 to 200 °C |
| CCn1cc(/C=C2\Oc3cc(OCc4c(Cl)cccc4Cl)ccc3C2=O)c2ccccc21 [Aurone 4q, (2Z)-6-[(2,6-Dichlorobenzyl)oxy]-2-[(1-ethyl-1H-indol-3-yl)methylene]-1-benzofuran-3(2H)-one] | 213 to 215 °C |
| CN(C)c1ccc(/C=C2\Oc3cc(OCc4ccccc4Cl)ccc3C2=O)c(Cl)c1 [Aurone 4s, (2Z)-6-[(2-Chlorobenzyl)oxy]-2-[2-chloro-4-(dimethylamino)benzylidene]-1-benzofuran-3(2H)-one] | > 220 °C |
| CCN(CC)c1ccc(/C=C2\Oc3cc(OCc4cc(F)ccc4F)ccc3C2=O)c(OC)c1 [Aurone 4t, (2Z)-6-[(2,5-Difluorobenzyl)oxy]-2-[4-(diethylamino)-2-methoxybenzylidene]-1-benzofuran-3(2H)-one] | 184 to 186 °C |
